Laboratory results as given in US20090106858A1, “Isolation and Characterization of the Csb3-1 Mutant of Arabidopsis Thaliana and Use Thereof as a Regulator of Resistance in Plants to Diseases Caused by Biotrophic Pathogens” (priority 2005, published 2009).
“Also recorded” adds a separate entry of the source.

Key:
P69C-GUS [1] = test: Histochemical GUS staining of P69C-GUS indicator gene expression; format: in vivo, Arabidopsis thaliana; conditions: csb3-1 seedlings, 25 μM
Experimental: (§1) FIG. 8. Pharmacological complementation with phosmidomicine of the resistance increase in csb3-1 plants. • (A) Wild seedlings (wt) and csb3-1 seedlings of Arabidopsis were sprayed once at 48 hours and 24 hours before exposing them to Pst DC3000 with a buffer solution complemented with 25 μM or 50 μM dilution (+phosm) the controls were treated in a similar manner with buffer solution alone. The plants were exposed to Pst DC3000 and the pathogen's growth was recorded at days 0, 3 and 5 after inoculation (dpi). • (B) The effect of the phosmidomicine treatment (25 μM, treated as described in point (A) on the constitutive expression of P69C-GUS in csb3-1 seedlings (right) as compared with csb3-1 seedlings treated with the buffer solution alone (left). • (C) The effect of the phosmidomicine treatment (25 μM, treated as described in point (A) on the constitutive expression of SA regulated marker genes in csb3-1 seedlings of Arabidopsis as compared with csb3-1 seedlings treated with the buffer solution alone.
The mutant line csb3-1 used in these experiments had been subjected to backcrossing at least four times with the original wild line. Plants were made to grow in a growth chamber (19-23° C., fluorescent light at 100 μEm^−2 seg^−1) in a cycle of 10 hours of light to 14 hours of darkness. […]

[2] = tested on: Pseudomonas syringae pv. tomato DC3000; test: Pst DC3000 bacterial growth in Arabidopsis seedlings sprayed with phosmidomicine before inoculation; format: in vivo, Arabidopsis thaliana
Excerpt: An increase in substrate (MEcPP) accumulation of the CSB3/HDS enzyme or of any of the intermediate metabolic products that precede MEcPP accumulation in the MEP pathway (FIG. 6) could be responsible for the increased resistance of csb3-1 plants. Alternatively, a decrease of product synthesis (HMBPP) of the same enzyme could compromise the synthesis and accumulation of final products (IPP and DMAPP) (FIG. 6) that in turn could compromise the later biosynthesis of the different isoprenoids that must be derived from the MEP pathway. This last possibility can also be responsible for the resistance increase of the csb3-1 plants. In order to study any of these possibilities the impact of an inhibitor in the MEP pathway for increased resistance of csb3-1 plants to Pst DC3000 was studied. To approach the question in this manner phosmidomicine [3-(N-formil-N-hydroxyamino)-propylphosphonic acid] was used as well as a DXR competitive inhibitor, the enzyme that controls the second stage involved in the MEP pathway (FIG. 6) and reduces the levels of the final products obtained by this pathway (that is, IPP and DMAPP) (Schwender, J., Muller, C., Zeidler, J., and Lichtenthaler, H. K. (1999). Cloning and heterologous expression of a cDNA encoding 1-deoxy-D-xylulose-5 phosphate reductoisomerase of Arabidopsis thaliana. FEBS Lett. 455, 140-144; Laule, O., Furholz, A., Chang, H., Zhu, T., Wang, X., Heifetz, P. B., Gruissem, W., and Lange, M. (2003). Crosstalk between cytosolic and plastidial pathways of isoprenoid biosynthesis in Arabidopsis thaliana. Proc. Natl. Acad. Sci. USA 100, 6866-6871). In order to separate this response from the response derived from an arrest of the chloroplast development, phosmidomicine treatments were applied in much smaller dosages and during smaller periods of times than those used experimentally by others (Laule et al., 2003). Wild seedlings and csb3-1 seedlings were sprayed once with a 25 μM or a 50 μM dilution of phosmidomicine 48 hours and 24 hours before inoculation with Pst DC3000 and the subsequent bacterial growth was recorded in inoculated plants at 0.3 and 5 d.p.i. Treated plants were also studied to determine the effect on the normal expression of the P69C-GUS gene. […] Greater dosages of this inhibitor were not tested, since they could have a collateral developmental and/or homeostatic effect in the chloroplast that could lead to undesired side effects.
FIG. 8. […] The plants were exposed to Pst DC3000 and the pathogen's growth was recorded at days 0, 3 and 5 after inoculation (dpi). • (B) The effect of the phosmidomicine treatment (25 μM, treated as described in point (A) on the constitutive expression of P69C-GUS in csb3-1 seedlings (right) as compared with csb3-1 seedlings treated with the buffer solution alone (left). • (C) The effect of the phosmidomicine treatment (25 μM, treated as described in point (A) on the constitutive expression of SA regulated marker genes in csb3-1 seedlings of Arabidopsis as compared with csb3-1 seedlings treated with the buffer solution alone.
Pseudomonas syringae pv. tomato DC3000 was grown and was then prepared to be inoculated as previously described (Mayda et al., 2000). […] A high throughput method for quantifying growth of phytopathogenic bacteria in Arabidopsis thaliana. […]

[3] = tested on: PR-1 and GST6 marker genes; test: RT-PCR analysis of SA regulated marker genes PR-1 and GST6; format: in vivo, Arabidopsis thaliana; conditions: csb3-1 seedlings, 25 μM
Experimental: as §1
To analyze the level of genic expression by inverse transcriptase mediated PCR, the total RNA samples from leaf tissue were prepared using the Totally RNA kit made by Ambion (Austin, Tex.). Inverse transcription was done using the RT kit for PCR made by Clontech (Palo Alto, Calif.). […]

P69C-GUS [4] = conditions: wild Arabidopsis plants, local application (Jordá et al., 2000); cited from earlier work

SMILES	effect on constitutive expression of the P69C-GUS transgene (P69C-GUS [1])	effect on increased resistance of csb3-1 plants to Pst DC3000 (bacterial growth) ([2]; csb3-1 plants, 5 μM treatments)	complementation of the resistance increase phenotype associated to csb3-1 ([2]; csb3-1 plants, summary statement)	effect on increased resistance of csb3-1 plants to Pst DC3000 (bacterial growth) ([2]; csb3-1 seedlings, one 50 μM treatment)	effect on increased resistance of csb3-1 plants to Pst DC3000 (bacterial growth) ([2]; csb3-1 seedlings, sprayed once with 25 μM 48 h and 24 h before inoculation)	effect on normal resistance of wild plants to Pst DC3000 (bacterial growth) ([2]; wild plants, 50 μM)	effect on constitutive expression of PR-1 and GST6 marker genes [3]	expression of P69C-GUS after local application (P69C-GUS [4])
O=CN(O)CCCP(=O)(O)O [phosmidomicine, 3-(N-formil-N-hydroxyamino)-propylphosphonic acid]	regulation by reduction of the constitutive expression of the P69G-GUS transgene	provoked a reduction in the increased resistance of the csb3-1 plants that was only observed 5 days after inoculation	complement completely the resistance increase phenotype associated to csb3-1	completely suppressed the resistance increase attributed to the csb3-1 mutation	noticeably reduce resistance increase to Pst DC3000	made the plants more susceptible to this virulent pathogen; also recorded: resulted in greater rates of bacterial growth	regulation by reduction of the constitutive expression	
O=C(O)c1ccccc1O [SA, Salicylic acid]								induces the expression of the P69C-GUS
